# From article doi:10.1101/2022.09.01.506269v1 (biorxiv, 2022)
# Read-outs that look alike come from different tables or passages of the source.
# How the values were obtained:
# choline transporter = biological target: T1, choline transporter (Homo sapiens, UniProt Q9GZV3); assay: biochemical
# T1 sequence (Q9GZV3 1-580): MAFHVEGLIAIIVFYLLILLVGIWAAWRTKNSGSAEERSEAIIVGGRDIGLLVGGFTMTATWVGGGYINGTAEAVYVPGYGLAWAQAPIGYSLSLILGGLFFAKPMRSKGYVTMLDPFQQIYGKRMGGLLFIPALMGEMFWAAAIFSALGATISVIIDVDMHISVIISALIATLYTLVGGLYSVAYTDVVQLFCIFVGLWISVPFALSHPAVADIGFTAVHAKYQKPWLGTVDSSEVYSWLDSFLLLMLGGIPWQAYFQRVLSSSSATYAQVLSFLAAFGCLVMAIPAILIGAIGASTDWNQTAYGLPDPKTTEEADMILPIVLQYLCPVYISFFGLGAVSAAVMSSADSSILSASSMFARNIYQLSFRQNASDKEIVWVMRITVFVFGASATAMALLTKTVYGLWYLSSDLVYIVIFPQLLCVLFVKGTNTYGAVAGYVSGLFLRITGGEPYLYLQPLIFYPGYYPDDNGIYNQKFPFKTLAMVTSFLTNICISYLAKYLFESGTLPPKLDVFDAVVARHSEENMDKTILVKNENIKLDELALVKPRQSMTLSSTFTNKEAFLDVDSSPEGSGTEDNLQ
# D1 = D1 (Homo sapiens, UniProt P21728); assay: biochemical
# Sequence of D1 (P21728 whole entry): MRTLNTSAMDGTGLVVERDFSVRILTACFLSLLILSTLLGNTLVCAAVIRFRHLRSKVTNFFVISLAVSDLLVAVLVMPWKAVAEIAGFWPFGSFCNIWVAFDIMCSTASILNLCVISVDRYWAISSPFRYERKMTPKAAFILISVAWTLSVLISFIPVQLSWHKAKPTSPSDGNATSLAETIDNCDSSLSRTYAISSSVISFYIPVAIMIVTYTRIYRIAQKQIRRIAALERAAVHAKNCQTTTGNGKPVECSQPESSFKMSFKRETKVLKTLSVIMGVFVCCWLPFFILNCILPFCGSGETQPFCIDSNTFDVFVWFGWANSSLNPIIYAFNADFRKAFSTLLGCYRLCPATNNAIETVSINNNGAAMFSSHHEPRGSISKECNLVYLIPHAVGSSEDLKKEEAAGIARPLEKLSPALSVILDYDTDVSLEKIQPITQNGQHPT
# CYP3A4 = CYP3A4 (Homo sapiens, UniProt P08684); assay: CYP3A4 inhibition, method not given; format: biochemical
# Sequence of CYP3A4 (P08684 2-503): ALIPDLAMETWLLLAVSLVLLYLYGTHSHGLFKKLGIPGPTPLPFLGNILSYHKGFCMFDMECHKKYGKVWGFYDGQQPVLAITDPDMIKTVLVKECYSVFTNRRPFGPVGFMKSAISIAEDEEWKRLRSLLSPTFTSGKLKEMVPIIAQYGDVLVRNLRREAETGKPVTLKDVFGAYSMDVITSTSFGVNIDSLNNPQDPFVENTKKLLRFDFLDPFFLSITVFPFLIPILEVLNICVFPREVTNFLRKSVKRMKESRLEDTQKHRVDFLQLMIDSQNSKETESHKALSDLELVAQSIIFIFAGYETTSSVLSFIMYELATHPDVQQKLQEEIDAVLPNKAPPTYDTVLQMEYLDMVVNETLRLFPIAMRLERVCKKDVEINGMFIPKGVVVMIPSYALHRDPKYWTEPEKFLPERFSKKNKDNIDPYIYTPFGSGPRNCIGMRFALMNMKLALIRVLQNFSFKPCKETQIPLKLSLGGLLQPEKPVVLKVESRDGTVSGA
# [1] = read-out: XEN602 % inhibition at 1 µM
# [2] = read-out: XEN601 % inhibition at 1 µM
inhibition at 1 µM (choline transporter; [1]),inhibition at 1 µM (D1; [1]),IC50 (CYP3A4),inhibition at 1 µM (choline transporter; [2]),inhibition at 1 µM (D1; [2]),Structure (SMILES)
52%,59%,–,–,–,"N=C(N)SCc1cc(F)ccc1Oc1ccc(-c2ccc(Oc3ccc(CCCN4CCNCC4)cc3CSC(=N)N)c(CSC(=N)N)c2)cc1CSC(=N)N [compound 6, XEN602]"
–,–,< 1000 nM,62%,69%,"N=C(N)SCc1ccccc1Oc1ccc(-c2ccc(Oc3ccccc3CSC(=N)N)c(CSC(=N)N)c2)cc1CSC(=N)N [compound 5, XEN601]"
